Assay: Clinical single-dose crossover study: relative bioavailability and dose proportionality from plasma ramipril and ramiprilat, tablets vs ALTACE capsules
Format: in vivo, human
[1] = doses increased from 2.5 to 20 mg

increase of AUC0-24 with dose (geometric means) [1]: proportional
increase of Cmax with dose (geometric means) [1]: more than proportional increase
increase of AUC0-t and AUC0-48 with dose (geometric means) (ramipril doses 2.5 to 20 mg): less than proportional increase
SMILES: C[C@H](N[C@@H](CCc1ccccc1)C(=O)O)C(=O)N1[C@H](C(=O)O)C[C@@H]2CCC[C@@H]21 [ramiprilat]
